{"source": "patent US20180256515A1", "about": "“ORAL AMPHETAMINE COMPOSITION” (Adare Pharmaceuticals, Inc., priority 2017, published 2018)", "assay": "Water solubility (statement)", "note": "Structures can show the parent of a compound that is named as a salt. Where two headings read alike, the source gives them in different places."}
{"smiles": "CC(N)Cc1ccccc1", "note": "(racemic) [Amphetamine sulfate, racemic amphetamine sulfate]", "values": [{"measurement": "solubility", "value": "freely soluble"}, {"measurement": "solubility", "setting": "listed as Racemic amphetamine sulfate", "value": "freely water soluble"}]}
